Results reported in US10159685B2, “Vascular calcification” (Cambridge Enterprise Limited, priority 2016, dated 2018).
Read-outs that look alike come from different tables or passages of the source. Marks after values point to notes of the source that are not given here.

Tests used:
[1] = human, in vivo
[2] = test system: bovine vascular smooth muscle cells (bVSMCs); assay: MTT cell viability assay, bVSMCs with or without GAD medium, 7 or 9 days (Example 5); assay type: cell-based
Procedure: As above, cells were treated either with medium only (“no-additions”; NA)+/−inhibitors, or with the GAD-medium+/−inhibitors. […] Additionally, an MTT assay was performed as a measure of cell viability/proliferation. Bovine VSMCs were seeded in 96 well plates and cultured in M199/20% FCS for 1 day. Then, the cells were incubated with inhibitor concentrations of 10 μM, 1 μM and 0.1 μM (in M199 medium+5% FBS). […] Then, the MTT assay was performed.

[3] = cited from earlier work
[4] = test system: bovine vascular smooth muscle cells (bVSMCs); assay type: cell-based; conditions: 7 days; for Cell viability of bVSMCs after seven days (MTT signal, relative to control): mean of three experiments
Procedure: The toxicity of the identified compounds to bovine VSMCs was measured using the MTT assay, which measures the activity of dehydrogenase enzymes of live cells. This assay can pick up both cell death and proliferation.
Bovine VSMCs were seeded in 96 well plates and cultured in M199/20% FCS for 1 day. Then, the cells were incubated with inhibitor concentrations from 0.5 to 100 μM (in M199 medium+5% FBS). The cells were incubated with the inhibitors for 7 days; every 2-3 days the medium −/+inhibitors was exchanged. Then, the MTT assay was performed. The stock vehicle DMSO was tested at corresponding concentrations to the inhibitors at 0.1% DMSO or less.

[5] = test system: bovine vascular smooth muscle cells (bVSMCs); assay: o-Cresolphthalein Ca2+ assay, bVSMC GAD calcification model (Examples 4 and 5); assay type: cell-based
Procedure: (§1) For the bVSMCs a GAD medium (10 mM β-glycerophosphate/0.1 mM L-ascorbic acid-2-phosphate/10 nM dexamethasone) model was used to induce mineralization in bVSMCs. Accordingly, cells were seeded in tissue culture plates using M199/20% FCS culture medium and cultured overnight. The next day, cells were treated either with medium only (M199/5% FBS)+/−inhibitors, or with the GAD-medium (10 mM β-glycerophosphate/0.1 mM L-ascorbic acid-2-phosphate/[…] dexamethasone)+/−inhibitors.
Medium+/−inhibitors was exchanged every 2-3 days. […]
The o-Cresolphthalein assay is a spectrophotometric method for measuring Ca^2+-concentrations in cell/tissue lysates. Following the calcification experiments, cells are briefly washed to remove medium and 100 […]1 of 0.1 N HCl is added to each well to dissolve any mineral deposits. Then, the Ca^2+-concentration of the samples is measured spectrophotometrically (at 570 nm) in the o-cresolphthalein assay with the help of a CaCl2 standard curve in a concentration range of ˜0.02-270 µg Ca^2+/ml.
The commercial BioRad DC protein assay is based on the Lowry method, aka reaction of proteins with a copper-tartrate complex and subsequent reaction with Folin's reagent. Following the calcification experiment, cells are briefly washed to remove medium and 100 µl of solubilisation solution (0.1 M NaOH/1% SDS/DIW) is added to each well to lyse the cells. The protein concentrations of the lysates are subsequently determined in the BioRad DC assay as per supplier's instructions using BSA (bovine serum albumin) as standard.
The in vitro model is the same as the model used in example 4; bovine vascular smooth muscle cells (bVSMCs) cultured so that they produce extracellular matrix, with the addition of the GAD medium (10 mM β-glycerophosphate/0.1 mM L-ascorbic acid-2-phosphate/10 nM dexamethasone).
As above, cells were treated either with medium only (“no-additions”; NA)+/−inhibitors, or with the GAD-medium+/−inhibitors. The inhibitors used were PJ34 and minocyclin (MC) at 10 μM, 1 μM and 0.1 μM.
The methodology was the same as that described in example 4.

[6] = test system: PARP produced by a mammalian cell; conditions: have been shown; cited from earlier work
[7] = test system: bovine vascular smooth muscle cells (bVSMCs); assay: Alizarin Red S staining, bVSMC GAD calcification model (Example 4); assay type: cell-based; conditions: GAD-treated bVSMCs, 10 μM, 7 d, versus no inhibitor
Procedure: as §1
Medium+/−inhibitors was exchanged every 2-3 days. Bovine VSMCs were incubated for 7 d prior to assessment.
The Alizarin Red S staining is a visual/histological stain for tissue calcium deposits. Cells are briefly fixed in 4% paraformaldehyde/PIPES buffer pH 7.2 and subsequently stained for 5 min with Alizarin Red S (2% Alizarin Red S/DIW pH 4.2). Excess stain is removed by washing in DIW. Calcium mineral deposits are stained a bright orange red.

[8] = test system: human vascular smooth muscle cells (hVSMCs); assay: o-Cresolphthalein Ca2+ assay, hVSMC Ca/P calcification model (Examples 7-9); assay type: cell-based; conditions: hVSMCs, 6 days; PJ34 10 μM; minocycline and cilostazol 0.5, 1 and 2 μM
Procedure: (§2) Primary hVSMCs were cultured in M199 media containing FBS (M199/5% FBS). They were plated at a known cell density, allowed to grow for 24 hours and then treated with control (DMSO only) or calcification media (DMSO containing 2.7 mM Calcium+2.5 mM phosphate)+/−inhibitors. After 6 days, calcification was assessed using the o-Cresolphthalein assay for quantification of Ca^2+ deposition and a BioRad protein assay for protein content.
Medium+/−inhibitors was exchanged every 2-3 days.
as §2, with “8” for “6”, “using” for “using the”
All of the compounds tested were used at a concentration of 3 μM. Medium+/−inhibitors was exchanged every 2-3 days.
as §2, with “phosphate)+/−compounds.” for “phosphate)+/−inhibitors.”, “8” for “6”, “using” for “using the”
These concentrations were chosen to mimic the systemic concentrations of these drugs following patient dosing according to the dose schedule in the prescribing information for each drug. Medium+/−inhibitors was exchanged every 2-3 days.

[9] = test system: human monocyte-macrophages (HMMs); assay: MTT toxicity assay, HMMs, seven days (Example 3); assay type: cell-based; conditions: 7 days; for Cell viability by MTT, percent of control: mean of three experiments
Procedure: A similar set of toxicity experiments was performed with human monocyte-macrophages (HMMs).

CN(C)c1ccc(O)c2c1C[C@H]1C[C@H]3[C@H](N(C)C)C(O)=C(C(N)=O)C(=O)[C@@]3(O)C(O)=C1C2=O [minocycline]
dosage needed to reach the concentration of 0.46 micrograms/mL [1]: approximately 20 mg | Cell viability (%) mean ([2]; nine days, no GAD, 1 μM): 96.64% | Cell viability (%) mean ([2]; nine days, no GAD, 10 μM): 105.1% | Cell viability (%) mean ([2]; nine days, with GAD, 0.1 μM): 74.53% | Cell viability (%) mean ([2]; nine days, with GAD, 1 μM): 72.42% | Cell viability (%) mean ([2]; nine days, with GAD, 10 μM): 105.89% | Drop off in formazan production (MTT) in the GAD-treatment group ([2]; nine days, with GAD, 10 μM): not observed | Cell viability (%) mean ([2]; seven days, no GAD, 0.1 μM): 94.56% | Cell viability (%) mean ([2]; seven days, no GAD, 1 μM): 91.09% | Cell viability (%) mean ([2]; seven days, no GAD, 10 μM): 95.49% | Cell viability (%) mean ([2]; seven days, with GAD, 1 μM): 96.84% | Cell viability (%) mean ([2]; seven days, with GAD, 10 μM): 102.07% | maximum concentration (Cmax) in a patient's bloodstream ([3]; 50 mg oral dose): 0.65 micrograms/mL | half-life in the body ([3]; in vivo): approximately 12 hours | Toxicity to bVSMCs (MTT assay, in words) ([4]; at the concentrations tested (0.5 to 100 μM)): non-toxic | inhibition at 1 µM ([5]; Bos taurus, 216 h, bVSMCs, GAD medium, nine days, 1 μM, read-out: Reduction of Ca^2+ deposition compared to no potential inhibitor): ~38% | inhibition at 10 µM ([5]; Bos taurus, 216 h, bVSMCs, GAD medium, nine days, 10 μM, read-out: Reduction of Ca^2+ deposition compared to no potential inhibitor): ~81% | Concentration at which calcification is inhibited (as low as) ([5]; bVSMC GAD model, Example 5): 1 µM | Ca^2+ concentration found in bVSMCs, mean ([5]; nine days, no GAD, 0.1 μM): 1.484 μg calcium/ml | Ca^2+ concentration found in bVSMCs, mean ([5]; nine days, no GAD, 1 μM): 1.327 μg calcium/ml | Ca^2+ concentration found in bVSMCs, mean ([5]; nine days, no GAD, 10 μM): 0.925 μg calcium/ml | Ca^2+ concentration found in bVSMCs, mean ([5]; nine days, with GAD, 0.1 μM): 26.16 μg calcium/ml | Ca^2+ concentration found in bVSMCs, mean ([5]; nine days, with GAD, 1 μM): 21.35 μg calcium/ml | Ca^2+ concentration found in bVSMCs, mean ([5]; nine days, with GAD, 10 μM): 3.74 μg calcium/ml | Ca^2+ concentration found in bVSMCs, mean ([5]; seven days, no GAD, 0.1 μM): 0.654 μg calcium/ml | Ca^2+ concentration found in bVSMCs, mean ([5]; seven days, no GAD, 1 μM): 0.595 μg calcium/ml | Ca^2+ concentration found in bVSMCs, mean ([5]; seven days, no GAD, 10 μM): 0.523 μg calcium/ml | Ca^2+ concentration found in bVSMCs, mean ([5]; seven days, with GAD, 0.1 μM): 1.79 μg calcium/ml | Ca^2+ concentration found in bVSMCs, mean ([5]; seven days, with GAD, 1 μM): 2 μg calcium/ml | Ca^2+ concentration found in bVSMCs, mean ([5]; seven days, with GAD, 10 μM): 2.38 μg calcium/ml

CN(C)CC(=O)Nc1ccc2[nH]c(=O)c3ccccc3c2c1.Cl [PJ34, N-(6-Oxo-5,6-dihydrophenanthridin-2-yl)-(N,N-dimethylamino)acetamide hydrochloride]
Inhibition of PARP produced by a mammalian cell [6]: inhibit PARP | Degree of mineralization judged by eye (Alizarin Red S, FIG. 6) [7]: slightly worse | Calcium levels (mass of calcium, FIG. 17) versus DMSO Ca+P positive control [8]: reduce the calcium levels | Normalised calcium levels (mass of calcium per mass of protein, FIG. 19) [8]: lower calcium levels significantly | Cell viability by MTT, percent of control ([9]; 0.5 uM): 106.63 | Cell viability by MTT, percent of control ([9]; 1 uM): 88.38 | Cell viability by MTT, percent of control ([9]; 2 uM): 84.08 | Cell viability by MTT, percent of control ([9]; 5 uM): 95.65 | Cell viability by MTT, percent of control ([9]; 10 uM): 77.14 | Cell viability by MTT, percent of control ([9]; 20 uM): 74.86 | Cell viability by MTT, percent of control ([9]; 50 uM): 60.33* | Cell viability by MTT, percent of control ([9]; 100 uM): 37.30* | Toxicity to HMMs (in words) ([9]; at a concentration of 100 μM): most toxic | Cell viability (%) mean ([2]; nine days, no GAD, 0.1 μM): 99.88% | Cell viability (%) mean ([2]; nine days, no GAD, 1 μM): 97.1% | Cell viability (%) mean ([2]; nine days, no GAD, 10 μM): 98.3% | Cell viability (%) mean ([2]; nine days, with GAD, 0.1 μM): 69.43% | Cell viability (%) mean ([2]; nine days, with GAD, 1 μM): 59.06% | Cell viability (%) mean ([2]; nine days, with GAD, 10 μM): 69.43% | Cell viability (%) mean ([2]; seven days, no GAD, 0.1 μM): 93.81% | Cell viability (%) mean ([2]; seven days, no GAD, 1 μM): 97.16% | Cell viability (%) mean ([2]; seven days, no GAD, 10 μM): 99.25% | Cell viability (%) mean ([2]; seven days, with GAD, 0.1 μM): 96.46% | Cell viability (%) mean ([2]; seven days, with GAD, 1 μM): 94.61% | Cell viability (%) mean ([2]; seven days, with GAD, 10 μM): 90.03% | Cell viability of bVSMCs after seven days (MTT signal, relative to control) ([4]; 0.5 uM): 102.59 | Cell viability of bVSMCs after seven days (MTT signal, relative to control) ([4]; 1 uM): 98.89 | Cell viability of bVSMCs after seven days (MTT signal, relative to control) ([4]; 2 uM): 92.33 | Cell viability of bVSMCs after seven days (MTT signal, relative to control) ([4]; 5 uM): 95.74 | Cell viability of bVSMCs after seven days (MTT signal, relative to control) ([4]; 10 uM): 97.07 | Cell viability of bVSMCs after seven days (MTT signal, relative to control) ([4]; 20 uM): 99.71 | Cell viability of bVSMCs after seven days (MTT signal, relative to control) ([4]; 50 uM): 80.83* | Cell viability of bVSMCs after seven days (MTT signal, relative to control) ([4]; 100 uM): 53.72* | Toxicity to bVSMCs (MTT assay, in words) ([4]; at 50 and 100 μM): toxic | Cell death in bVSMCs (FIG. 4A and example 2) ([4]; bVSMCs): induce some cell death | Calcium levels (mass of calcium, FIG. 7B) compared to no inhibitors ([5]; GAD-treated bVSMCs, 10 μM, 7 d): elevate calcium levels | Normalised calcium levels (mass of calcium per mass of protein, FIG. 9B) ([5]; GAD-treated bVSMCs, 10 μM, 7 d): elevate calcium levels | Effect on calcification (in words, discussion of Example 5) ([5]; bVSMC GAD model): encouraging calcification | Ca^2+ concentration found in bVSMCs, mean ([5]; nine days, no GAD, 0.1 μM): 1.438 μg calcium/ml | Ca^2+ concentration found in bVSMCs, mean ([5]; nine days, no GAD, 1 μM): 1.179 μg calcium/ml | Ca^2+ concentration found in bVSMCs, mean ([5]; nine days, no GAD, 10 μM): 1.061 μg calcium/ml | Ca^2+ concentration found in bVSMCs, mean ([5]; nine days, with GAD, 0.1 μM): 22.69 μg calcium/ml | Ca^2+ concentration found in bVSMCs, mean ([5]; nine days, with GAD, 1 μM): 132.87 μg calcium/ml | Ca^2+ concentration found in bVSMCs, mean ([5]; nine days, with GAD, 10 μM): 66.68 μg calcium/ml | Ca^2+ concentration found in bVSMCs, mean ([5]; seven days, no GAD, 0.1 μM): 0.612 μg calcium/ml | Ca^2+ concentration found in bVSMCs, mean ([5]; seven days, no GAD, 1 μM): 0.565 μg calcium/ml | Ca^2+ concentration found in bVSMCs, mean ([5]; seven days, no GAD, 10 μM): 0.561 μg calcium/ml | Ca^2+ concentration found in bVSMCs, mean ([5]; seven days, with GAD, 0.1 μM): 1.84 μg calcium/ml | Ca^2+ concentration found in bVSMCs, mean ([5]; seven days, with GAD, 1 μM): 4.06 μg calcium/ml | Ca^2+ concentration found in bVSMCs, mean ([5]; seven days, with GAD, 10 μM): 4.93 μg calcium/ml
